The values that follow come from article PMC13083723 (Patterns, 2026).

The assay relates to Vero-E6 cells. Put plainly: cells. In kind it is cell-based. The conditions noted are these: Chlorocebus sabaeus, Vero C1008, 24 h, read-out: PL_Result.

Take `O=C1N[C@@H]2[C@@H](O)[C@@H](O)[C@H](O)[C@@H](CO)N2C1=O` [SPE_K02898090]: the activation at 10 µM was 7%.

Take `COc1ccc(S(=O)(=O)N2CCC[C@H]2C(=O)Nc2cc(C)cc(C)c2)cc1` [SPE_K19781342]: the activation at 10 µM is 0.676%.

`CC(C)(C)c1ccc(-c2nc3ccccc3[nH]2)cc1` [SPE_K73073971]: the activation at 10 µM is 9.59%.

Consider `CCN(CC)CCN(Cc1ccc(-c2ccc(C(F)(F)F)cc2)cc1)C(=O)Cn1c(SCc2ccc(F)cc2)nc(=O)c2c1CCC2` [SPE_K19085898], for which the activation at 10 µM was -5.09%.

Turning to `CC(=O)O[C@H]1C[C@@]2(C)[C@@H](C[C@@H](O)C3[C@]2(C)CC[C@H]2[C@H](C)[C@H](O)CC[C@]32C)/C1=C(/CCC=C(C)C)C(=O)O` (some centres unmarked) [SPE_A06935312], the activation at 10 µM was -11.6%.

`CN(C)C(=O)Oc1cccc([N+](C)(C)C)c1` [SPE_K18922609]: the activation at 10 µM is -9.73%.

As for `O=C(Nc1ccc(S(=O)(=O)C(F)(F)F)cc1)C1=CCN(c2ncccc2C(F)(F)F)CC1` [SPE_K87665527], the activation at 10 µM stood at 1.59%.

`CCN(CCNC(=O)Nc1ccccc1Br)c1cccc(C)c1` [SPE_K03665769]: the activation at 10 µM was -3.7%.

As to `OC[C@H]1O[C@@H](OCCc2ccc(O)cc2)[C@H](O)[C@@H](O)[C@@H]1O` [SPE_K66030860], the activation at 10 µM was -4.58%.

For `CC(C)(C)c1ccc(NC(=O)N2CCN(c3ncccc3Cl)CC2)cc1` [SPE_K66541497], the activation at 10 µM is -7.73%.

In the case of `CS(=O)(=O)c1ccc(-c2cnc(NCc3ccco3)n3cnnc23)cc1` [SPE_K19002914], the activation at 10 µM was determined as 5.68%.

For `NC[C@H](CC(=O)O)c1ccc(Cl)cc1` [SPE_K62353271], the activation at 10 µM is -10.2%.

Consider `CCN1CCC(n2cc(CNc3cc(Cl)c4ncc(C#N)c(Nc5ccc(F)c(Cl)c5)c4c3)nn2)CC1` [SPE_K49468759], for which the activation at 10 µM was determined as 33.2%.

Take `CC1(C)CNc2cc(NC(=O)c3cccnc3NCc3ccncc3)ccc21` [SPE_K99616396]: the activation at 10 µM is -4.48%.

With `CC(C)Oc1ccc(-c2nc(-c3cccc4c3CC[C@@H]4NCCO)no2)cc1C#N` [SPE_K46625559], the activation at 10 µM is -0.603%.

With `O=C(CC(c1ccccc1)c1ccccc1)N1CCN(C(c2ccccc2)c2ccccc2)CC1` [SPE_K16037980], the activation at 10 µM was -13.7%.

With `Clc1ccc(C(Cn2ccnc2)OCc2ccsc2Cl)c(Cl)c1` (centres unmarked) [SPE_A33084557], the activation at 10 µM is 4.51%.

For `CCCCC/C=C\C=C/CCCCCCCCC(=O)O` [SPE_K26222048], the activation at 10 µM is -6.49%.

Consider `O=C(O)C(=O)c1cn(Cc2ccccc2)c2ccc(-c3ccc(OC(F)(F)F)cc3)cc12` [SPE_K30882994], for which the activation at 10 µM stood at 1.29%.

Regarding `CCN(CCO)CCCOc1ccc2c(Nc3cc(CC(=O)Nc4cccc(F)c4)n[nH]3)ncnc2c1` [SPE_K63923597], the activation at 10 µM is -6.57%.

In the case of `Cc1cn(C2CC(N=[N+]=[N-])C(CO)O2)c(=O)[nH]c1=O` (centres unmarked) [SPE_A33692381], the activation at 10 µM was -1.92%.

Take `CC(=O)NC[C@H]1CN(c2ccc(N3CCN(C(=O)CO)CC3)c(F)c2)C(=O)O1` [SPE_K47554101]: the activation at 10 µM is -3.34%.

On to `COc1ccn2ncc(-c3nc4[nH]nc(NC(=O)c5ccc(F)cc5)c4cc3F)c2c1` [SPE_K84068331], for which the activation at 10 µM was -16.5%.

For `N#Cc1ccc(NCCNCC(=O)N2CCC[C@H]2C#N)nc1` [SPE_K77396579], the activation at 10 µM was -14.3%.

For `CCc1ccc2c(-c3cccc(Cl)c3)nc(=O)n(CC)c2n1` [SPE_K12932420], the activation at 10 µM worked out at 0.000931%.

`Cc1c(N)cccc1Cn1ccc(OCCc2cccs2)cc1=O` [SPE_K48888725]: the activation at 10 µM amounted to 1.09%.

For the compound `CN(C)C/C=C/C(=O)Nc1ccc(C(=O)Nc2cccc(Nc3ncc(Cl)c(-c4c[nH]c5ccccc45)n3)c2)cc1` [SPE_K66401437], the activation at 10 µM came out at 6.67%.

Take `O=C(N[C@H]1CN2CCC1CC2)c1ccc(Cl)cc1` [SPE_K28863208]: the activation at 10 µM was -0.0405%.

As to `COc1cc(N)c(Cl)cc1C(=O)NC1CN2CCC1CC2` (centres unmarked) [SPE_A65615053], the activation at 10 µM was -14.1%.

`COc1ccc(Nc2ncnc3ccc(OC)cc23)cc1` [SPE_K87696786]: the activation at 10 µM is -2.62%.

For `Nc1ccn([C@H]2CC[C@@H](CO)O2)c(=O)n1` [SPE_K85925969], the activation at 10 µM was found to be 2.75%.

For the compound `COc1cc(/C=C/C(=O)O)ccc1O` [SPE_K66295376], the activation at 10 µM is -10.8%.

Regarding `O=C(Cn1c(=O)sc2ccc(Cl)cc21)N1CCN(CCO)CC1` [SPE_K27293958], the activation at 10 µM was found to be 2.56%.

As to `Cc1cc(C(N)=O)ccc1-n1c(CCC(=O)O)ccc1-c1ccc(-n2ccnc2)cc1` [SPE_K82522873], the activation at 10 µM was -2.92%.

As for `CCn1cc(C(=O)O)c(=O)c2cc(F)c(N3CCNC(C)C3)c(F)c21` (centres unmarked) [SPE_A75850590], the activation at 10 µM was -1.78%.

As to `Cc1ccc(S(=O)(=O)NC(=O)NN2CCCCCC2)cc1` [SPE_K32164935], the activation at 10 µM is -1.35%.

`O=C(NCCCN1CCOCC1)c1ccc(Cl)cc1` [SPE_K17979676]: the activation at 10 µM was -11.4%.

For `C[C@@H](NC(=O)c1ncnc(N)c1Cl)c1ncc(C(=O)Nc2cc(C(F)(F)F)c(Cl)cn2)s1` [SPE_K43410529], the activation at 10 µM is -2.41%.

As to `COc1ccc(COc2cc3oc(=O)c4cc(C(C)O)ccc4c3cc2OC)cc1` (centres unmarked) [SPE_A50998626], the activation at 10 µM is -7.77%.

As to `C1CCC2(CC1)CCNCC2` [SPE_K49545903], the activation at 10 µM was -14.5%.

As to `CCn1ccnc1CC1COc2ccccc2O1` (centres unmarked) [SPE_A10903566], the activation at 10 µM was determined as 2.21%.

Take `CCCNC(=O)Nc1ccc(Oc2ncnc3cc(OC)c(OC)cc23)cc1Cl` [SPE_K90993449]: the activation at 10 µM was -9.86%.

As to `O=C1NC(c2cccc([N+](=O)[O-])c2)=CCN1c1ccccc1O` [SPE_K48869804], the activation at 10 µM worked out at 1.47%.

Take `S=c1[nH]cnc2nc[nH]c12` [SPE_K91601245]: the activation at 10 µM is -8.41%.

Consider `Cn1cc(-c2cc(Oc3cc(F)c(NC(=O)C4(C(=O)Nc5ccccc5)CC4)cc3F)ccn2)cn1` [SPE_K49246350], for which the activation at 10 µM was -0.953%.

For the compound `CN1CCN(c2nc(C3=C(c4c[nH]c5ccccc45)C(=O)NC3=O)c3ccccc3n2)CC1` [SPE_K16761703], the activation at 10 µM stood at 37.5%.

For the compound `c1ccc(C2CC2)c(OCC2=NCCN2)c1` [SPE_K54142781], the activation at 10 µM was -12.4%.

As for `NC(Cc1c[nH]c2ccc(O)cc12)C(=O)O` (centres unmarked) [SPE_A73930134], the activation at 10 µM was -6.97%.

Consider `C=C[C@@]1(C)CC(=O)[C@@]2(O)[C@](C)(O1)[C@@H](OC(C)=O)[C@@H](O)C1C(C)(C)CC[C@H](O)[C@@]12C` (some centres unmarked) [SPE_A55416093], for which the activation at 10 µM was -12.3%.

In the case of `NC(=O)C1=CN([C@@H]2O[C@H](COP(=O)(O)OP(=O)(O)OC[C@H]3O[C@@H](n4cnc5c(N)ncnc54)[C@H](OP(=O)(O)O)[C@@H]3O)[C@@H](O)[C@H]2O)C=CC1` [SPE_M06409173], the activation at 10 µM was -2.48%.

For the compound `CN(C)CC(=O)Nc1ccc2[nH]c(=O)c3ccccc3c2c1` [SPE_K11853856], the activation at 10 µM is -0.459%.

Turning to `O=C(O)CC1CC(c2ccccc2)=NO1` (centres unmarked) [SPE_A32269193], the activation at 10 µM was -19.4%.

For the compound `CNC(=O)c1c(C)oc2cc(Oc3ncnc4cc(OC)c(OC)cc34)ccc12` [SPE_K70504253], the activation at 10 µM is 8.27%.

`CCCCc1ccc2[nH]c(NC(=O)OC)nc2c1` [SPE_K02407574]: the activation at 10 µM was -11.6%.

`Cn1nc(-c2ccc(C(F)(F)F)cc2)nc2c(=O)n(C)c(=O)nc1-2` [SPE_K01129913]: the activation at 10 µM was -6.15%.

Consider `O=C(NCc1ccc(Oc2ccccc2)cc1)c1nc(-c2cc(Br)c(O)c(Br)c2)no1` [SPE_K84892605], for which the activation at 10 µM is -10.4%.

As to `CN(C(=O)c1ccc(F)cc1C(F)(F)F)C1CCN(c2nnc(-c3ccnn3C)c3ccccc23)CC1` [SPE_K50498985], the activation at 10 µM was -8%.

In the case of `Cc1[nH]c2ccc(F)cc2c1-c1nc2c3cccnc3c3ncccc3c2[nH]1` [SPE_K68003372], the activation at 10 µM is -0.56%.

In the case of `Cn1ncnc1COc1nn2c(-c3cc(F)ccc3F)nnc2cc1C(C)(C)C` [SPE_K46647427], the activation at 10 µM was -14.8%.

Regarding `CCOC(=O)n1ccn(C)c1=S` [SPE_K87156652], the activation at 10 µM was -10.8%.

Regarding `COCCN1CCC(C(=O)NO)(S(=O)(=O)c2ccc(Oc3ccc(OC(F)(F)F)cc3)cc2)CC1` [SPE_K51102532], the activation at 10 µM is -13.6%.

As to `CCOc1cccc(NC(=O)c2ccc(N3CCCC3)c(C(F)(F)F)c2)c1` [SPE_K42536037], the activation at 10 µM was -13.1%.

Consider `CC(=O)Oc1cc2c(s1)CCN(C(C(=O)C1CC1)c1ccccc1F)C2` (centres unmarked) [SPE_A83029242], for which the activation at 10 µM was -4.76%.

As to `Cn1c(=O)[nH]c2ncn(C)c2c1=O` [SPE_K24084088], the activation at 10 µM was -5.64%.

As to `CCN(CC)Cc1ccc2cc(COC(=O)Nc3ccc(C(=O)NO)cc3)ccc2c1` [SPE_K13810148], the activation at 10 µM is -13.8%.

For the compound `CC[C@H](CO)Nc1nc(NCc2ccccc2)c2ncn(C(C)C)c2n1` [SPE_K07691486], the activation at 10 µM stood at 5.8%.

In the case of `Oc1cc(Cl)ccc1Oc1ccc(Cl)cc1Cl` [SPE_K41731458], the activation at 10 µM is 0.158%.

In the case of `COc1nc(C)cnc1NS(=O)(=O)c1cccnc1-c1ccc(-c2nnco2)cc1` [SPE_K31553034], the activation at 10 µM was -4.16%.

Consider `Cc1nc(N)sc1-c1ccnc(Nc2ccc(N3CCOCC3)cc2)n1` [SPE_K64866502], for which the activation at 10 µM is -7.46%.

With `CC(=O)N(OCc1ccccc1)[C@@H]1c2cc(C#N)ccc2OC(C)(C)[C@H]1O` [SPE_K42679050], the activation at 10 µM was determined as 0.738%.

Turning to `O=C1C(Cl)=C(N2CCOCC2)C(=O)N1c1ccc(Cl)c(Cl)c1` [SPE_K79555887], the activation at 10 µM turned out to be 5.74%.

Take `CC(=O)c1ccc2c(c1)N(CCCN(C)C)c1ccccc1S2` [SPE_K37814297]: the activation at 10 µM amounted to 27.3%.

On to `CCCc1c(-c2ccc(O)cc2)nn(-c2ccc(O)cc2)c1-c1ccc(O)cc1` [SPE_K00312224], for which the activation at 10 µM was found to be 1.41%.

Consider `CNc1ncc2cc(-c3cc(NC(=O)NCCC(C)(C)C)c(F)cc3C)c(C)nc2n1` [SPE_K38385169], for which the activation at 10 µM is -2.79%.
